ChEMBL document CHEMBL4011631, “Trisubstituted Pyridinylimidazoles as Potent Inhibitors of the Clinically Resistant L858R/T790M/C797S EGFR Mutant: Targeting of Both Hydrophobic Regions and the Phosphate Binding Site” (J Med Chem, 2017)
Active and inactive are the calls of the source. No cut-off for these calls is given here.

Columns and labels:
[1] = target: Epidermal growth factor receptor (Homo sapiens, UniProt P00533, C797S/L858R/T790M); assay: Inhibition of human EGFR T790M/C797S/L858R triple mutant preincubated for 20 mins followed by [33P]ATP addition measured after 2 hrs
[2] = target: T1, Epidermal growth factor receptor (Homo sapiens, UniProt P00533, L858R/T790M)
[3] = system: NCI-H1975; assay: cells; type: functional, cell-based; details: Homo sapiens, NCI-H1975, 96 h
[4] = target: T2, Epidermal growth factor receptor (Homo sapiens, UniProt P00533); type: ADME
Description: Inhibition of human N-terminal GST-fused EGFR cytoplasmic domain (669 to 1210 residues) expressed in baculovirus using TK-substrate-biotin preincubated for 30 mins followed by substrate addition measured after 25 mins by HTFR assay

[5] = system: A-431; assay: cells; type: ADME, cell-based; details: Homo sapiens, A-431, 96 h
Description: Antiproliferative activity against human A431 cells harboring wild type EGFR assessed as growth inhibition after 96 hrs by CellTiter-Glo assay

[6] = target: T3, Epidermal growth factor receptor (Homo sapiens, UniProt P00533, L858R)
[7] = system: Epidermal growth factor receptor (Homo sapiens), P00533 [T790M]; assay: Covalent binding affinity to EGFR T790M mutant (unknown origin) at 100 uM after 1 hr by mass spectrometric analysis
[8] = Drug degradation in human liver microsomes at 100 uM preincubated for 5 mins with NADPH-regenerating system followed by liver microsomes addition measured after 240 mins by LC-MS analysis; type: ADME, microsome; details: read-out: Drug degradation
[9] = target: T3, Epidermal growth factor receptor; remark: listed apart in the source
[10] = target: T2, Epidermal growth factor receptor; details: read-out: Ratio
Description: Ratio of Kinact for human N-terminal GST-fused EGFR cytoplasmic domain (669 to 1210 residues) expressed in baculovirus to Ki for human N-terminal GST-fused EGFR cytoplasmic domain (669 to 1210 residues) expressed in baculovirus

[11] = target: T2, Epidermal growth factor receptor; details: for kinact: human
Description: Inhibition of human N-terminal GST-fused EGFR cytoplasmic domain (669 to 1210 residues) expressed in baculovirus using TK-substrate-biotin incubated for 2 to 90 mins by HTFR assay

[12] = target: T1, Epidermal growth factor receptor; remark: listed apart in the source

SMILES: CCC(=O)Nc1ccc(OC)c(Nc2cc(-c3[nH]c(SC)nc3-c3ccc(F)cc3)ccn2)c1
- IC50 [1]: 167 nM
- IC50 [2]: 5 nM
- EC50 [3]: 4300 nM
- IC50 [4]: < 1 nM
- EC50 [5]: 7700 nM
- IC50 [6]: < 1 nM

SMILES: CC(=O)CCCSc1nc(-c2ccc(F)cc2)c(-c2ccnc(Nc3ccccc3)c2)[nH]1
- IC50 [2]: 1330 nM
- EC50 [3]: 14000 nM
- IC50 [4]: 185 nM
- EC50 [5]: 12000 nM
- IC50 [6]: 76 nM

SMILES: CN(C)C/C=C/C(=O)NCCSc1nc(-c2ccc(F)cc2)c(-c2ccnc(Nc3ccccc3)c2)[nH]1
- IC50 [2]: 18 nM
- EC50 [3]: > 5000 nM
- IC50 [4]: 2.7 nM
- EC50 [5]: 6600 nM
- IC50 [6]: 1.9 nM

SMILES: OCCSc1nc(-c2ccc(F)cc2)c(-c2ccnc(Nc3ccccc3)c2)[nH]1
- IC50 [2]: 83 nM
- EC50 [3]: 16000 nM
- IC50 [4]: 11 nM
- EC50 [5]: 11000 nM
- IC50 [6]: 1.1 nM

SMILES: N#CCCSc1nc(-c2ccc(F)cc2)c(-c2ccnc(Nc3ccccc3)c2)[nH]1
- IC50 [2]: 746 nM
- EC50 [3]: 16000 nM
- IC50 [4]: 109 nM
- EC50 [5]: 17000 nM
- IC50 [6]: 40 nM

SMILES: C=CC(=O)Nc1cccc(Nc2cc(-c3[nH]c(SC)nc3-c3ccc(F)cc3)ccn2)c1
- Activity [7]: Active
- IC50 [2]: 3.3 nM
- EC50 [3]: 190 nM
- IC50 [4]: < 1 nM
- EC50 [5]: 1700 nM
- IC50 [6]: < 1 nM

SMILES: C=CC(=O)Nc1ccc(OC)c(Nc2cc(-c3[nH]c(SC)nc3-c3ccc4ccccc4c3)ccn2)c1
- IC50 [2]: 1.1 nM
- EC50 [3]: 380 nM
- IC50 [4]: < 1 nM
- EC50 [5]: 3000 nM
- IC50 [6]: < 1 nM

SMILES: C=CC(=O)NCCCSc1nc(-c2ccc(F)cc2)c(-c2ccnc(Nc3ccccc3)c2)[nH]1
- IC50 [2]: 321 nM
- EC50 [3]: 1300 nM
- IC50 [4]: 16 nM
- EC50 [5]: 1400 nM
- IC50 [6]: 22 nM

SMILES: Fc1ccc(-c2nc(SCCN3CCOCC3)[nH]c2-c2ccnc(Nc3ccccc3)c2)cc1
- IC50 [2]: 1250 nM
- EC50 [3]: 15000 nM
- IC50 [4]: 183 nM
- EC50 [5]: 10000 nM
- IC50 [6]: 75 nM

SMILES: C=CC(=O)N1CCC[C@@H]1CSc1nc(-c2ccc(F)cc2)c(-c2ccnc(Nc3ccccc3)c2)[nH]1
- EC50 [3]: 3400 nM
- EC50 [5]: 6900 nM

SMILES: C=CC(=O)Nc1cc(Nc2cc(-c3[nH]c(SC)nc3-c3ccc(F)cc3)ccn2)cc(N2CCN(C)CC2)c1
- IC50 [1]: 11 nM
- IC50 [2]: < 1 nM
- EC50 [3]: 1100 nM
- IC50 [4]: < 1 nM
- EC50 [5]: 1400 nM
- metabolised at 4 h, 100 µM [8]: 27%
- IC50 [6]: < 1 nM

SMILES: CCC(=O)Nc1ccc(OC)c(Nc2cc(-c3cnc(SC)[nH]3)ccn2)c1
- IC50 [2]: 3510 nM
- EC50 [3]: > 30000 nM
- IC50 [4]: 1770 nM
- EC50 [5]: 13000 nM
- IC50 [6]: 360 nM

SMILES: C=CC(=O)NCCSc1nc(-c2ccc(F)cc2)c(-c2ccnc(Nc3ccccc3)c2)[nH]1
- Ki [9]: 0.38 nM
- kinact/KI [10]: 940000 M⁻¹ s⁻¹
- Ki [11]: 1.6 nM
- kinact [11]: 0.0015 s⁻¹
- IC50 [2]: 38 nM
- EC50 [3]: 2400 nM
- Ki [12]: 6 nM
- IC50 [4]: 1.6 nM
- EC50 [5]: 12000 nM
- IC50 [6]: 2.2 nM

SMILES: C=CC(=O)NCCSc1nc(-c2ccc(F)c(C(F)(F)F)c2)c(-c2ccnc(Nc3ccccc3)c2)[nH]1
- IC50 [2]: 646 nM
- EC50 [3]: 3100 nM
- IC50 [4]: 45 nM
- EC50 [5]: 11000 nM
- IC50 [6]: 144 nM

SMILES: C=CC(=O)N1CCC[C@H]1CSc1nc(-c2ccc(F)cc2)c(-c2ccnc(Nc3ccccc3)c2)[nH]1
- EC50 [3]: 4700 nM
- EC50 [5]: 8800 nM

SMILES: C=CC(=O)NCc1cccc(Nc2cc(-c3[nH]c(SC)nc3-c3ccc(F)cc3)ccn2)c1
- IC50 [2]: 89 nM
- EC50 [3]: 3400 nM
- IC50 [4]: 16 nM
- EC50 [5]: 14000 nM
- IC50 [6]: 4.9 nM

SMILES: C=CC(=O)Nc1ccc(OC)c(Nc2cc(-c3[nH]c(CCCO)nc3-c3ccc(F)cc3)ccn2)c1
- Ki [9]: 0.03 nM
- kinact/KI [10]: 1.5e+07 M⁻¹ s⁻¹
- IC50 [1]: 8 nM
- Ki [11]: 0.07 nM
- kinact [11]: 0.00267 s⁻¹
- IC50 [2]: < 1 nM
- EC50 [3]: 400 nM
- Ki [12]: 0.1 nM
- IC50 [4]: < 1 nM
- EC50 [5]: 4000 nM
- metabolised at 4 h, 100 µM [8]: 9%
- IC50 [6]: < 1 nM

SMILES: C=CC(=O)Nc1ccc(OC)c(Nc2cc(-c3[nH]c(SC)nc3C)ccn2)c1
- IC50 [2]: 33 nM
- EC50 [3]: 4100 nM
- IC50 [4]: 32 nM
- EC50 [5]: 9700 nM
- IC50 [6]: 10 nM

SMILES: C=CC(=O)Nc1ccc(OC)c(Nc2cc(-c3[nH]c(SC)nc3C3CC3)ccn2)c1
- IC50 [2]: 7.4 nM
- EC50 [3]: 2300 nM
- IC50 [4]: 2.3 nM
- EC50 [5]: 8000 nM
- IC50 [6]: < 1 nM

SMILES: C=CC(=O)Nc1ccc(OC)c(Nc2cc(-c3[nH]c(SC)nc3-c3cccs3)ccn2)c1
- IC50 [2]: < 1 nM
- EC50 [3]: 84 nM
- IC50 [4]: < 1 nM
- EC50 [5]: 7400 nM
- IC50 [6]: < 1 nM
